{
  "source": "PubChem BioAssay AID1645864",
  "about": "(Buhrlage Lab, Dana-Farber Cancer Institute and Novartis …, 2021)",
  "note": "Active and inactive are the calls of the source.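 Rule for the calls: active = maximal inhibition of USP17 at or above 30% in the confirmation dose-response, a value not among the printed readouts; inactive = the rest.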",
  "data": [
    {"biological_target": "Ubiquitin carboxyl-terminal hydrolase 17-like protein 5 (Homo sapiens) (UniProt A8MUK1)", "sequence (A8MUK1 whole entry, looked up)": "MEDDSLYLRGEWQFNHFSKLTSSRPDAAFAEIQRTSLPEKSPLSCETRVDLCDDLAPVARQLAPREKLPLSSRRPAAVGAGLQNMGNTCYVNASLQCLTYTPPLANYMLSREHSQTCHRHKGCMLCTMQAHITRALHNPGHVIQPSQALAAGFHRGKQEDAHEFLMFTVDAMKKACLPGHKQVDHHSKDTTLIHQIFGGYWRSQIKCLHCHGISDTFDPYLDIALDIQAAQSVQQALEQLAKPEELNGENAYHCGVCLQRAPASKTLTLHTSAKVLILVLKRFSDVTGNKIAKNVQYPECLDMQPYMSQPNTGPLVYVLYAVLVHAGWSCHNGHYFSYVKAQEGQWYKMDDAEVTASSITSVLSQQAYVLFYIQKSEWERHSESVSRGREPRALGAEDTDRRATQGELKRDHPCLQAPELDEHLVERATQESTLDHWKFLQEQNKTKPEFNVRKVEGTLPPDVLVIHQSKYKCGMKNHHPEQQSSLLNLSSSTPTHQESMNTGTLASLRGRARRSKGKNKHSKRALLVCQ", "assay": "ubiquitin-specific protease 17 DUB inhibitors, concentration-effect assay, cell-free, verification of initial screening actives (AID 1645864)", "details": "purified USP17, ubiquitin-rhodamine cleavage fluorescence, 3 h", "values": [
      {"smiles": "COc1ccc(CCNC(=O)c2cn(-c3ccc(F)cc3)nn2)cc1OC", "IC50": "18.7 µM"},
      {"smiles": "CCCCCC(O)c1c(O)cc2c(c1O)C(=O)c1c(O)cc(O)cc1C2=O", "note": "(stereo not drawn)", "IC50": "> 50 µM (inactive)"},
      {"smiles": "COc1ccc(-c2nnc(SCc3ccccc3C#N)o2)c(OC)c1", "IC50": "> 50 µM (inactive)"},
      {"smiles": "O=C(NCCn1ccc2ccccc21)c1cc2ccccc2oc1=O", "IC50": "29.8 µM"},
      {"smiles": "CCOc1ccccc1-c1nc(-c2nnn(Cc3ccccc3)c2C)no1", "IC50": "> 50 µM (inactive)"},
      {"smiles": "Cc1cccc(C)c1NC(=O)Cn1c(=O)n(CCCCC(=O)NCc2ccc3c(c2)OCO3)c(=O)c2ccccc21", "IC50": "2.23 µM"},
      {"smiles": "CC(C)c1ccc(NC(=O)COC(=O)c2ccc3[nH]c4c(c3c2)CCCC4)cc1", "IC50": "42.7 µM"},
      {"smiles": "c1coc(CNc2nc3ccccc3n3nnnc23)c1", "IC50": "> 50 µM (inactive)"},
      {"smiles": "CCn1ccc2c(cc(C(=O)Nc3cc(F)ccc3F)n2C)c1=O", "IC50": "> 50 µM (inactive)"},
      {"smiles": "Cn1cc(-c2noc(Cc3cccc(C(F)(F)F)c3)n2)ccc1=O", "IC50": "> 50 µM (inactive)"},
      {"smiles": "CCOC(=O)c1ccc(NC(=O)C[n+]2cc(-c3ccc(Cl)cc3)n3c2CCC3)cc1", "IC50": "> 50 µM (inactive)"},
      {"smiles": "Cc1cc(N2CCOCC2)nc2ccc(NC(=O)CCC(=O)Nc3ccc(F)cc3)cc12", "IC50": "24.2 µM"},
      {"smiles": "COc1ccc(C(=O)C2CC(=O)Nc3c2c(C)nn3-c2ccc(Br)cc2)cc1", "note": "(stereo not drawn)", "IC50": "10 µM"},
      {"smiles": "Cc1ccccc1NC(=O)Cn1c(N2CCOCC2)nc2cc(C)n(C)c2c1=O", "IC50": "25.8 µM"},
      {"smiles": "O=C(Nc1ccc(Oc2cccc3cccnc23)cc1)c1cccs1", "IC50": "> 50 µM (inactive)"},
      {"smiles": "O=C(CSc1nnc(-c2ccncc2)n1Cc1ccccc1)c1ccc2[nH]c(O)cc2c1", "IC50": "4.12 µM"},
      {"smiles": "Cc1ccc2cc3c(nc2n1)CCN(Cc1ccc(F)cc1)C3", "IC50": "> 50 µM (inactive)"},
      {"smiles": "O=c1c2cnc(N3CCCCC3)nc2ccn1CCc1ccccc1", "IC50": "1.87 µM"},
      {"smiles": "Fc1cccc(-n2cc(-c3noc(-c4ccccn4)n3)nn2)c1", "IC50": "30.1 µM"},
      {"smiles": "COc1cccc(NC(=O)c2nnn(-c3ccccc3)n2)c1", "IC50": "> 50 µM (inactive)"},
      {"smiles": "O=C(NCc1ccc(-c2nc3cnccc3o2)cc1)c1cc2ccccc2o1", "IC50": "3.29 µM"},
      {"smiles": "Cc1cccc(NC(=O)Nc2nnc(CC(=O)NCc3ccccc3)s2)c1", "IC50": "10.7 µM"},
      {"smiles": "CC(=O)c1ccc(NC(=O)/C(=C/c2ccco2)n2nnnc2-c2ccccc2)cc1", "IC50": "> 50 µM (inactive)"},
      {"smiles": "O=c1[nH]c(-c2ccccn2)nc2c1CCN(Cc1cnn(-c3ccccc3)c1)C2", "IC50": "> 50 µM (inactive)"},
      {"smiles": "N#Cc1c(-c2cccs2)cc(-c2cccs2)[nH]c1=O", "IC50": "> 50 µM (inactive)"},
      {"smiles": "CCc1c(C)c(C#N)c2nc3ccccc3n2c1N1CCN(C2CCCC2)CC1", "IC50": "3.06 µM"},
      {"smiles": "Cc1nn(Cc2ccccc2)c2sc(C(=O)Nc3nc4ccccc4[nH]3)cc12", "IC50": "23.5 µM"},
      {"smiles": "CCC/C=C\\C#CC/C=C\\CCCCCCCC(=O)O", "IC50": "2.37 µM"},
      {"smiles": "O=C(NCc1ccccc1Cl)c1ccc2cn[nH]c2c1", "IC50": "> 50 µM (inactive)"},
      {"smiles": "Fc1ccccc1Cc1nc(-c2ccc3nncn3c2)no1", "IC50": "> 50 µM (inactive)"},
      {"smiles": "COc1cccc(C(=O)Nc2ccc(-n3cnnn3)cc2)c1", "IC50": "> 50 µM (inactive)"},
      {"smiles": "COc1ccc(-n2nnc(C(=O)Nc3ccccc3)c2N)cc1", "IC50": "26.8 µM"},
      {"smiles": "Cc1ccc2c(c1)[C@]1(C(=O)N2)[C@@H]2C(=O)N(c3cccc(C(F)(F)F)c3)C(=O)[C@@H]2C2CCCN21", "note": "(stereo partly drawn)", "IC50": "> 50 µM (inactive)"},
      {"smiles": "Cc1cc(C)nc(-n2nc(C)c3c2NC(=O)CSC3c2ccccc2F)n1", "note": "(stereo not drawn)", "IC50": "43 µM"},
      {"smiles": "CC1(C)CC(n2[nH]c(=O)c3c2NC(=O)CSC3c2ccc(OCc3ccccc3)cc2)CCO1", "note": "(stereo not drawn)", "IC50": "21 µM"},
      {"smiles": "O=C(Nc1ccccc1)c1nc(-c2cn(Cc3ccc(F)cc3)nn2)no1", "IC50": "42.4 µM"},
      {"smiles": "CCn1cnc2c1c(=O)n(CC(=O)NCc1ccccc1Cl)c(=O)n2Cc1ccccc1", "IC50": "> 50 µM (inactive)"},
      {"smiles": "Cc1cccc(NC(=O)CN2C(=O)COc3cc(S(=O)(=O)N4CCCC4)ccc32)c1C", "IC50": "26.4 µM"},
      {"smiles": "COc1ccc(C)cc1NC(=O)C(NS(=O)(=O)c1ccc2c(c1)CCN2C(C)=O)C(C)C", "note": "(stereo not drawn)", "IC50": "> 50 µM (inactive)"},
      {"smiles": "Nc1c(-c2ccc(Cl)cc2)cnc2cc(-c3ccc(Cl)c(Cl)c3)nn12", "IC50": "3.37 µM"},
      {"smiles": "O=S1(=O)NC(=NCCc2ccc(Cl)cc2Cl)c2ccccc21", "IC50": "36.4 µM"},
      {"smiles": "O=C(NCc1ccncc1)C1CCN(c2cncnc2N2CCCCC2)CC1", "IC50": "> 50 µM (inactive)"},
      {"smiles": "Cn1c(=O)[nH]c(=O)c2c1nc1n(CCc3ccccc3)c(-c3ccccc3)cn21", "IC50": "33.1 µM"},
      {"smiles": "O=C(NCCc1ccco1)c1ccc(N2CCOc3ccccc32)s1", "IC50": "15.4 µM"},
      {"smiles": "CCOc1ccccc1NC(=O)Cn1c(-c2ccc3c(c2)OCO3)cn(-c2ccc(OC)cc2)c1=O", "IC50": "> 50 µM (inactive)"},
      {"smiles": "CC(C)c1cc(Nc2cccc(F)c2)n2nc(-c3cccnc3)nc2n1", "IC50": "7.65 µM"},
      {"smiles": "CCCC1Cc2c(sc3nc(SCC)nc(N)c23)CO1", "note": "(stereo not drawn)", "IC50": "7.76 µM"},
      {"smiles": "COc1cnc(-c2ccccn2)nc1Sc1ccc(C)cc1", "IC50": "> 50 µM (inactive)"}
    ]}
  ]
}
